Where two headings read alike, the source gives them in different places.
System: C. parvum strain UGA1
Assay: C. parvum growth inhibition assay (Nluc luminescence in HCT-8 cells)
Format: cell-based, Cryptosporidium parvum
Conditions: Cryptosporidium parvum; for inhibition at 1 µM / inhibition at 10 µM: HCT-8; for inhibition at 1 µM: read-out: % inh @ 1 uM C. parvum; for inhibition at 10 µM: read-out: % inh @ 10 uM C. parvum; for EC50: HCT-8, 48 h, C. parvum growth inhibition in HCT-8 cells, 48 hours, 6 concentrations 10-0.04 μM
Procedure: C. parvum GROWTH INHIBITION ASSAYS
C. parvum growth inhibition was performed as described in Hulverson M A, Vinayak S, Choi R, Schaefer D A, Castellanos-Gonzalez A, Vidadala R S R, Brooks C F, Herbert G T, Betzer D P, Whitman G R, Sparks H N, Arnold S L M, Rivas K L, Barrett L K, White A C Jr, Maly D J, Riggs M W, Striepen B, Van Voorhis W C, Ojo K K. Bumped-Kinase Inhibitors for Cryptosporidiosis Therapy. J Infect Dis. 2017 Apr. 15; 215(8):1275-1284.
C. parvum strain UGA1 […] (ATCC, Manassas, VA) were prepared as described below. HCT-8 cells were inoculated onto 96-well plates were grown for 48 hours to 90%-100% confluence. C. parvum oocysts were then incubated for 10 minutes in 10% bleach at room temperature and washed with Dulbecco's phosphate-buffered saline. One thousand oocysts per well were applied to plates with Roswell Park Memorial Institute 1640 (RPMI) medium supplemented with 10% horse serum and 1% penicillin/streptomycin. Compounds of Formula (I), Formula (II), and Formula (III) were added to the plates at different concentrations and the plates were incubated for 48 hours. Following the incubation, the monolayers were lysed for 1 hour before a luciferase reagent was added, and relative luminescence units were determined.
For certain compounds of Formula I, Formula II, and Formula III, EC50 values were calculated using curves calculated from Prism after analysis of C. parvum growth inhibition at 6 different concentrations: 10, 3.33, 1.11, 0.37, 0.12, and 0.04 μM. […] For certain compounds of Formula I, Formula II, and Formula III, single point inhibition values of 0-33% (activity level D), between 33% and 66% (activity level E), and between 67% and 100% (activity level F) are also shown in Table 1 below.

[1] = single point inhibition @ 10 uM
[2] = single point inhibition at 1 uM
[3] = single point inhibition at 10 uM

Q: Which results are given for `Cn1cc(Nc2cc3[nH]c(C#N)cc3cn2)cn1` [Example 164, 6-(1-methyl-1H-pyrazol-4-ylamino)-1H-pyrrolo[3,2-c]pyridine-2-carbonitrile]?
A: inhibition at 1 µM (single point inhibition @ 1 uM): 0 to 33%; inhibition at 10 µM [1]: 67 to 100%

Q: `O=C(Nc1cc2[nH]c(C(F)(F)F)cc2cn1)C1CCCC1` [Example 111, N-(2-(trifluoromethyl)-1H-pyrrolo[3,2-c]pyridin-6-yl)cyclopentanecarboxamide] was tested. Which EC50 did it give?
A: > 1 µM

Q: How did the inhibition at 1 µM [2] turn out when `c1cc(Nc2cc3[nH]c(-c4cccnc4)cc3cn2)cc(-c2nc[nH]n2)c1` [Example 272, N-(3-(1H-1,2,4-triazol-3-yl)phenyl)-2-(pyridin-3-yl)-1H-pyrrolo[3,2-c]pyridin-6-amine] was run?
A: 0 to 33%

Q: What about the inhibition at 10 µM [3] of the same compound?
A: 0 to 33%

Q: What does the source list for `COc1nccc(-c2cc3cnc(NC(=O)c4cnn(CC5CCOC5)c4C)cc3[nH]2)n1` (stereo in doubt) [Example 179, (S)-N-(2-(2-methoxypyrimidin-4-yl)-1H-pyrrolo[3,2-c]pyridin-6-yl)-5-methyl-1-((tetrahydrofuran-3-yl)methyl)-1H-pyrazole-4-carboxamide]?
A: inhibition at 1 µM (single point inhibition @ 1 uM): 0 to 33%; inhibition at 10 µM [1]: 67 to 100%

Q: For `N#Cc1cc2cnc(Nc3cccc(-c4nc[nH]n4)c3)cc2[nH]1` [Example 145, 6-(3-(1H-1,2,4-triazol-3-yl)phenylamino)-1H-pyrrolo[3,2-c]pyridine-2-carbonitrile], which inhibition at 1 µM (single point inhibition @ 1 uM) is on record?
A: 0 to 33%

Q: And the inhibition at 10 µM [1]?
A: 67 to 100%

Q: What does the source list for `Cn1cc(C(=O)Nc2cc3[nH]c(-c4ccnc(OCC(F)(F)F)n4)cc3cn2)cn1` [Example 308, 1-methyl-N-(2-(2-(2,2,2-trifluoroethoxy)pyrimidin-4-yl)-1H-pyrrolo[3,2-c]pyridin-6-yl)-1H-pyrazole-4-carboxamide]?
A: inhibition at 1 µM [2]: 0 to 33%; inhibition at 10 µM [3]: 0 to 33%

Q: How did the inhibition at 1 µM [2] turn out when `COc1cc(-c2cc3cnc(NC(=O)c4cnn(C)c4)cc3[nH]2)ccn1` [Example 286, N-(2-(2-methoxypyridin-4-yl)-1H-pyrrolo[3,2-c]pyridin-6-yl)-1-methyl-1H-pyrazole-4-carboxamide] was run?
A: 0 to 33%

Q: And the inhibition at 10 µM [3]?
A: 0 to 33%

Q: What does the source list for `COc1nccc(-c2cc3cnc(NC(=O)CC4COC4)cc3[nH]2)n1` [Example 227, N-(2-(2-methoxypyrimidin-4-yl)-1H-pyrrolo[3,2-c]pyridin-6-yl)-2-(oxetan-3-yl)acetamide]?
A: inhibition at 1 µM [2]: 0 to 33%; inhibition at 10 µM [3]: 33 to 66%

Q: For `Cn1cc(C(=O)Nc2cc3[nH]c(-c4ccnc(C(F)(F)F)c4)cc3cn2)cn1` [Example 284, 1-methyl-N-(2-(2-(trifluoromethyl)pyridin-4-yl)-1H-pyrrolo[3,2-c]pyridin-6-yl)-1H-pyrazole-4-carboxamide], which inhibition at 1 µM [2] is on record?
A: 0 to 33%

Q: And the inhibition at 10 µM [3]?
A: 0 to 33%

Q: How did the inhibition at 1 µM [2] turn out when `Cc1cc(-c2cc3cnc(NC(=O)c4cnn(C5CCC5)c4)cc3[nH]2)ccn1` [Example 205, 1-cyclobutyl-N-(2-(2-methylpyridin-4-yl)-1H-pyrrolo[3,2-c]pyridin-6-yl)-1H-pyrazole-4-carboxamide] was run?
A: 0 to 33%

Q: And the inhibition at 10 µM [3]?
A: 67 to 100%

Q: How did the EC50 turn out when `O=C(Nc1cc2[nH]c(C(F)(F)F)cc2cn1)C1CCC1` [Example 76, N-(2-(trifluoromethyl)-1H-pyrrolo[3,2-c]pyridin-6-yl)cyclobutanecarboxamide] was run?
A: > 1 µM

Q: `N#Cc1cc2cnc(Nc3cc(-c4nc[nH]n4)cc(C4CCOCC4)c3)cc2[nH]1` [Example 208, 6-(3-(tetrahydro-2H-pyran-4-yl)-5-(1H-1,2,4-triazol-3-yl)phenylamino)-1H-pyrrolo[3,2-c]pyridine-2-carbonitrile] was tested. Which inhibition at 1 µM [2] did it give?
A: 0 to 33%

Q: What about the inhibition at 10 µM [3] of the same compound?
A: 67 to 100%

Q: For `Cn1cc(C(=O)Nc2cc3[nH]c(-c4cncn4C)cc3cn2)cn1` [Example 90, 1-methyl-N-(2-(1-methyl-1H-imidazol-5-yl)-1H-pyrrolo[3,2-c]pyridin-6-yl)-1H-pyrazole-4-carboxamide], which EC50 is on record?
A: > 1 µM

Q: What about the inhibition at 1 µM (single point inhibition @ 1 uM) of the same compound?
A: 33 to 66%

Q: And the inhibition at 10 µM [1]?
A: 0 to 33%
